Laboratory results as given in paper PMC7914639, “Antioxidant, Pancreatic Lipase Inhibitory, and Tyrosinase Inhibitory Activities of Extracts of the Invasive Plant Spartina anglica (Cord-Grass)” (Antioxidants, 2021).

How the values were obtained:
[1] = ABTS radical-scavenging assay; details: for ABTS Radical Scavenging (%): Table S4; for IC50: read-out: Radical Scavenging Activity Against ABTS IC50
Protocol: ABTS radical-scavenging activity was measured using a modified method of Re et al.. The ABTS stock solution was diluted in water to a concentration of 7.4 mM. The ABTS radical was produced by mixing ABTS stock solution with 2.45 mM potassium persulfate and incubating in dark for 12 h at room temperature. The ABTS solution was diluted with ethanol to obtain an absorbance (Ablank) of 0.70 ± 0.02 at 415 nm. After adding 95 μL of diluted ABTS solution to 5 μL of the sample, the mixture was incubated at room temperature for 15 min in dark. The absorbance (Asample) at 415 nm was measured using a microplate reader (Model Infinite M200 PRO; Tecan, Austria). The blank was prepared using the same procedure with deionized water instead of the sample. The ABTS radical scavenging activity was calculated as a percentage using the Equation (2) ABTS radical scavenging activity (%) = [1 − (Asample/Ablank)] × 100(2)

[2] = DPPH free radical-scavenging activity; details: for DPPH Radical Scavenging (%): Table S3; for IC50: read-out: Radical-Scavenging Activity Against DPPH IC50
Protocol: DPPH free radical-scavenging properties were evaluated using a previously reported method. Test sample (an extract, a fraction or a compound) in 100 μL of dimethyl sulfoxide (DMSO) (blank: 100 μL of DMSO solution) was added to 100 μL of an ethanolic solution of DPPH (60 μM) in the wells of a 96-well microplate. […] After the sample and the reagents had been mixed gently and incubated for 30 min at room temperature, the absorbance (A) at 540 nm was evaluated using a microplate reader (Model Infinite M200 PRO; Tecan, Austria). The free radical-scavenging activity was calculated as a percentage using the equation DPPH free radical-scavenging activity (%) = [1 − (Asample/Ablank)] × 100.(1)

[3] = molecular target: T1, porcine pancreatic lipase (Sus scrofa, UniProt P00591); assay: Pancreatic lipase inhibition assay (p-NPB hydrolysis); type: biochemical; details: for inhibition at 10 µg/mL: 10 μg/mL; for inhibition at 25 µg/mL: 25 μg/mL; for inhibition at 50 µg/mL: 50 μg/mL
T1 construct: purchased Sigma-Aldrich (St. Louis, MO, USA) Type II
T1 sequence (P00591 1-450): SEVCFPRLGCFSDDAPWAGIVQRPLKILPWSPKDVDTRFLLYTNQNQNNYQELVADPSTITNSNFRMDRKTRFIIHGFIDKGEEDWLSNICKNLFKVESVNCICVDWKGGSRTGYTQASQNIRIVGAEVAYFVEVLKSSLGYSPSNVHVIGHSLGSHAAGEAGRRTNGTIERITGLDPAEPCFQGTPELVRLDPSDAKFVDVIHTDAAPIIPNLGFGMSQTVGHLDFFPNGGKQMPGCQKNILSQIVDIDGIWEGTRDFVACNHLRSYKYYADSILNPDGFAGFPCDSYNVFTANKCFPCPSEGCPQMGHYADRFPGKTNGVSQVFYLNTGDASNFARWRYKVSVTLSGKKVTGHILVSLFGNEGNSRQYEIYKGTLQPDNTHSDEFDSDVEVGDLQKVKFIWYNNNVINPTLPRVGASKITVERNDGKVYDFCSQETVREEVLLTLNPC
Protocol: Pancreatic lipase activity was measured using the method previously reported by Kim et al.. An enzyme buffer was prepared by the addition of 6 μL of porcine pancreatic lipase solution (Sigma-Aldrich, St. Louis, MO, USA) in a buffer (10 mM morpholinepropanesulfonic acid and 1 mM EDTA, pH 6.8) to Tris buffer (169 μL, 100 mM Tris-HCl, and 5 mM CaCl2, pH 7.0). […] The enzymatic reaction mixtures were incubated at 37 °C for 35 min. Pancreatic lipase activity was determined by measuring the hydrolysis of p-NPB to p-nitrophenol, with absorption being recorded at 405 nm using a microplate reader (Model Infinite M200 PRO; Tecan, Austria). Inhibition of lipase activity was expressed in terms of the percentage reduction in absorbance when porcine pancreatic lipase was incubated with the test compounds, and calculated using the following Equation (4) Inhibition (%) = 100 − [(B − b)/(A − a) × 100](4) where A is the lipase activity without inhibitor, a is the negative control without inhibitor, B is the lipase activity with inhibitor, and b is the negative control with inhibitor. The results are expressed as an average (n = 4).

tyrosinase [4] = molecular target: tyrosinase; design: method as in doi:10.1007/s10600-014-1030-9; details: compound isolated from pollen of Calendula officinalis; cited from earlier work
tyrosinase [5] = molecular target: tyrosinase; design: method as in PMID 12720364, doi:10.1021/jf980226+; details: compound isolated from cumin; cited from earlier work
[6] = system: microphthalmia-associated transcription factor, tyrosinase, and tyrosinase-related proteins; design: method as in PMID 30146944; details: compound isolated from stem extract of Aurea helianthus; cited from earlier work
[7] = system: human melanocyte tyrosinase; design: method as in PMID 16442796; details: at 100 μM; cited from earlier work
tyrosinase [8] = assay: Tyrosinase inhibition assay (L-DOPA oxidation); type: biochemical; details: at 100 μg/mL
Protocol: The tyrosinase inhibition assay was performed using a modification of the method reported by Nerya et al.. A portion of a sample (20 μL) in DMSO (100 μg/mL) was mixed with 50 μL of 0.1 M potassium phosphate buffer (pH 6.8), to which was added 30 μL of 33 unit/mL tyrosinase and 100 μL of 12 mM L-3,4-dihydroxyphenylalanine (L-DOPA). The solution was mixed gently and the initial absorbance (Ainitial) was recorded at 492 nm using a microplate reader. The reaction mixture was then incubated at 37 °C for 4 min and thereafter the final absorbance (Afinal) was measured at 492 nm. Kojic acid was used as the reference drug. The tyrosinase inhibition activity was calculated as a percentage using the Equation (3) Tyrosinase inhibition activity (%) = [1 − (Afinal/Ainitial)] × 100(3)

COc1cc(/C=C/C(=O)O[C@@H]2C[C@@](OC(=O)/C=C/c3ccc(O)c(OC)c3)(C(=O)O)C[C@@H](O)[C@@H]2O)ccc1O [Compound 1, 1,3-di-O-trans-feruloyl-(−)-quinic acid]
Radical Scavenging Activity Against ABTS IC50 [1]: 16.37 µg/mL | ABTS Radical Scavenging (%) ([1]; 5 μg/mL): 27.97 ± 4.11% | ABTS Radical Scavenging (%) ([1]; 25 μg/mL): 66.31 ± 1.84% | ABTS Radical Scavenging (%) ([1]; 50 μg/mL): 66.38 ± 1.47% | IC50 [1]: 30.1 µM | Radical-Scavenging Activity Against DPPH IC50 [2]: 9.53 µg/mL | DPPH Radical Scavenging (%) ([2]; 1 μg/mL): 11.87 ± 0.82% | DPPH Radical Scavenging (%) ([2]; 2 μg/mL): 24.91 ± 0.78% | DPPH Radical Scavenging (%) ([2]; 5 μg/mL): 38.70 ± 2.24% | DPPH Radical Scavenging (%) ([2]; 10 μg/mL): 51.54 ± 1.30% | DPPH Radical Scavenging (%) ([2]; 25 μg/mL): 82.94 ± 0.56% | DPPH Radical Scavenging (%) ([2]; 50 μg/mL): 85.92 ± 1.27% | DPPH Radical Scavenging (%) ([2]; 100 μg/mL): 89.88 ± 1.25% | DPPH Radical Scavenging (%) ([2]; 250 μg/mL): 100.78 ± 1.46% | DPPH Radical Scavenging (%) ([2]; 500 μg/mL): 101.99 ± 0.37% | IC50 [2]: 17.5 µM | IC50 [3]: 242 µM | inhibition at 10 µg/mL ([3]; Table S5): 0.73 ± 0.01% | inhibition at 25 µg/mL ([3]; Table S5): 21.17 ± 0.01% | inhibition at 50 µg/mL ([3]; Table S5): 37.95 ± 0.02% | inhibition at 100 µg/mL ([3]; 100 μg/mL, Table S5): 41.11 ± 0.01% | IC50, activity of tyrosinase against diphenolase (tyrosinase [4]): 134.4 ± 4.8 µg/mL | IC50, activity of tyrosinase against monophenolase (tyrosinase [4]): 44.6 ± 1.5 µg/mL

O=Cc1ccc(O)cc1 [Compound 2, p-hydroxybenzaldehyde]
ABTS Radical Scavenging (%) ([1]; 5 μg/mL): 2.03 ± 0.00% | ABTS Radical Scavenging (%) ([1]; 25 μg/mL): 3.97 ± 0.43% | ABTS Radical Scavenging (%) ([1]; 50 μg/mL): 8.71 ± 0.21% | DPPH Radical Scavenging (%) ([2]; 1 μg/mL): 2.93 ± 2.39% | DPPH Radical Scavenging (%) ([2]; 2 μg/mL): 2.73 ± 2.15% | DPPH Radical Scavenging (%) ([2]; 5 μg/mL): 3.58 ± 1.79% | DPPH Radical Scavenging (%) ([2]; 10 μg/mL): 4.43 ± 0.36% | DPPH Radical Scavenging (%) ([2]; 25 μg/mL): 3.61 ± 1.11% | DPPH Radical Scavenging (%) ([2]; 50 μg/mL): 3.78 ± 1.40% | DPPH Radical Scavenging (%) ([2]; 100 μg/mL): 3.89 ±2.50% | DPPH Radical Scavenging (%) ([2]; 250 μg/mL): 7.28 ± 0.80% | DPPH Radical Scavenging (%) ([2]; 500 μg/mL): 8.66 ± 0.30% | IC50 [3]: 710 µM | inhibition at 10 µg/mL ([3]; Table S5): 15.07 ± 0.01% | inhibition at 25 µg/mL ([3]; Table S5): 36.64 ± 0.02% | inhibition at 50 µg/mL ([3]; Table S5): 42.68 ± 0.01% | inhibition at 100 µg/mL ([3]; 100 μg/mL, Table S5): 52.6% | IC50 (tyrosinase [5]): 820 µM | type of tyrosinase inhibition (tyrosinase [5]): non-competitive

COc1cc(/C=C/C(=O)NCCc2ccc(O)cc2)ccc1O [Compound 3, N-trans-feruloyltyramine]
Radical Scavenging Activity Against ABTS IC50 [1]: 8.19 µg/mL | ABTS Radical Scavenging (%) ([1]; 5 μg/mL): 44.18 ± 2.64% | ABTS Radical Scavenging (%) ([1]; 25 μg/mL): 78.71 ± 0.06% | ABTS Radical Scavenging (%) ([1]; 50 μg/mL): 82.19 ± 1.38% | IC50 [1]: 26.1 µM | Radical-Scavenging Activity Against DPPH IC50 [2]: 4.67 µg/mL | DPPH Radical Scavenging (%) ([2]; 1 μg/mL): 0.86 ± 2.12% | DPPH Radical Scavenging (%) ([2]; 2 μg/mL): 14.90 ± 1.63% | DPPH Radical Scavenging (%) ([2]; 5 μg/mL): 54.29 ±0.30% | DPPH Radical Scavenging (%) ([2]; 10 μg/mL): 63.25 ± 0.83% | DPPH Radical Scavenging (%) ([2]; 25 μg/mL): 70.53 ± 1.74% | DPPH Radical Scavenging (%) ([2]; 50 μg/mL): 78.51 ± 0.06% | DPPH Radical Scavenging (%) ([2]; 100 μg/mL): 93.65 ± 1.70% | DPPH Radical Scavenging (%) ([2]; 250 μg/mL): 95.51 ± 0.10% | DPPH Radical Scavenging (%) ([2]; 500 μg/mL): 97.23 ± 0.33% | IC50 [2]: 14.9 µM | inhibition at 10 µg/mL ([3]; Table S5): 14.76 ± 0.01% | inhibition at 25 µg/mL ([3]; Table S5): 15.87 ± 0.02% | inhibition at 50 µg/mL ([3]; Table S5): 16.96 ± 0.02% | inhibition at 100 µg/mL ([3]; 100 μg/mL, Table S5): 17.28 ± 0.02% | effect on microphthalmia-associated transcription factor, tyrosinase, and tyrosinase-related proteins [6]: downregulate | inhibition of human melanocyte tyrosinase [7]: 49 ± 4%

O=c1cc(CO)occ1O [Kojic acid]
Inhibition of L-DOPA Oxidation (%) (tyrosinase [8]): 98.6 ± 0.4 ^2%

O=C1O[C@H]([C@@H](O)CO)C(O)=C1O [L-Ascorbic acid, reference compound]
Radical Scavenging Activity Against ABTS IC50 [1]: 3.50 µg/mL | ABTS Radical Scavenging (%) ([1]; 5 μg/mL): 70.41 ±0.28% | ABTS Radical Scavenging (%) ([1]; 25 μg/mL): 99.75 ± 0.06% | ABTS Radical Scavenging (%) ([1]; 50 μg/mL): 99.77 ± 0.08% | Radical-Scavenging Activity Against ABTS (%) ([1]; at 100 μg/mL): 99.5 ± 0.3 ^1% | IC50 [1]: 19.9 µM | Radical-Scavenging Activity Against DPPH IC50 [2]: 1.17 µg/mL | DPPH Radical Scavenging (%) ([2]; 1 μg/mL): 45.09 ± 1.40% | DPPH Radical Scavenging (%) ([2]; 2 μg/mL): 87.36 ± 2.24% | DPPH Radical Scavenging (%) ([2]; 5 μg/mL): 97.41 ± 0.46% | DPPH Radical Scavenging (%) ([2]; 10 μg/mL): 98.01 ± 0.07% | DPPH Radical Scavenging (%) ([2]; 25 μg/mL): 97.50 ± 0.53% | DPPH Radical Scavenging (%) ([2]; 50 μg/mL): 97.28 ± 0.27% | DPPH Radical Scavenging (%) ([2]; 100 μg/mL): 97.03 ± 0.26% | DPPH Radical Scavenging (%) ([2]; 250 μg/mL): 98.14 ± 0.15% | Radical-Scavenging Activity Against DPPH (%) ([2]; at 100 μg/mL): 98.5 ± 0.2 ^1% | IC50 [2]: 6.64 µM

CCCCCCCCCCC[C@@H](C[C@@H]1OC(=O)[C@H]1CCCCCC)OC(=O)[C@H](CC(C)C)NC=O [Orlistat, orlistat, reference compound]
inhibition at 0.1 µg/mL ([3]; 0.10 μg/mL, Table S5): 22.98 ± 0.01% | inhibition at 0.25 µg/mL ([3]; 0.25 μg/mL, Table S5): 27.63 ± 0.01% | inhibition at 0.5 µg/mL ([3]; 0.50 μg/mL, Table S5): 51.17 ± 0.01% | inhibition at 1 µg/mL ([3]; 1.00 μg/mL, Table S5): 54.53 ± 0.02% | inhibition at 100 µg/mL ([3]; at 100 μg/mL): 67.8%
